Reference: ChEMBL document CHEMBL1201862, “PubChem BioAssay data set” (2004)
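96-well plates; 48 h exposure; 5 concentrations. Endpoints by linear interpolation between flanking doses. Not reached: highest tested concentration assigned. GI50 marks 50% less growth.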 Calls of active or inactive are those of the source. Cut-off read from the data, not from the text of the source: active = GI50 up to about 1.1 µM and inactive = higher.

Legend:
Assay in all cases: inhibition of tumour cell growth, NCI panel, 48 h
[1] = test system: 786-0
[2] = test system: A549
[3] = test system: ACHN
[4] = test system: CAKI-1
[5] = test system: CCRF-CEM
[6] = test system: COLO 205
[7] = test system: DU-145
[8] = test system: EKVX
[9] = test system: HCC 2998
[10] = test system: HCT-116
[11] = test system: HCT-15
[12] = test system: HL-60
[13] = test system: HOP-62
[14] = test system: HT-29
[15] = test system: Hs-578T
[16] = test system: IGROV-1
[17] = test system: K562
[18] = test system: KM12
[19] = test system: M14
[20] = test system: MCF7
[21] = test system: MDA-MB-231
[22] = test system: MDA-MB-435
[23] = test system: MOLT-4
[24] = test system: NCI-H226
[25] = test system: NCI-H460
[26] = test system: NCI/ADR-RES
[27] = test system: OVCAR-4
[28] = test system: OVCAR-5
[29] = test system: OVCAR-8
[30] = test system: PC-3
[31] = test system: RPMI-8226
[32] = test system: RXF 393
[33] = test system: SF-268
[34] = test system: SF-295
[35] = test system: SF-539
[36] = test system: SK-MEL-28
[37] = test system: SK-MEL-2
[38] = test system: SK-MEL-5
[39] = test system: SK-OV-3
[40] = test system: SN12C
[41] = test system: SNB-19
[42] = test system: SNB-75
[43] = test system: SR
[44] = test system: SW-620
[45] = test system: T47D
[46] = test system: TK-10
[47] = test system: U-251
[48] = test system: UACC-257
[49] = test system: UACC-62
[50] = test system: UO-31
[51] = test system: HOP-92
[52] = test system: MDA-N
[53] = test system: NCI-H23
[54] = test system: OVCAR-3
[55] = test system: A498
[56] = test system: LOX IMVI
[57] = test system: Malme-3M
[58] = test system: NCI-H522

SMILES: O=C(CP(=O)(c1ccccc1)c1ccccc1)c1cccc(C(=O)CP(=O)(c2ccccc2)c2ccccc2)c1
- GI50 [1]: 37.8 µM (inactive)
- GI50 [2]: > 100 µM (inactive)
- GI50 [3]: > 100 µM (inactive)
- GI50 [4]: > 100 µM (inactive)
- GI50 [5]: > 100 µM (inactive)
- GI50 [6]: > 100 µM (inactive)
- GI50 [7]: > 100 µM (inactive)
- GI50 [8]: 56.8 µM (inactive)
- GI50 [9]: > 100 µM (inactive)
- GI50 [10]: 48.9 µM (inactive)
- GI50 [11]: > 100 µM
- GI50 [12]: > 100 µM (inactive)
- GI50 [13]: 34.4 µM (inactive)
- GI50 [14]: > 100 µM (inactive)
- GI50 [15]: 25.6 µM (inactive)
- GI50 [16]: 55.2 µM (inactive)
- GI50 [17]: > 100 µM (inactive)
- GI50 [18]: > 100 µM (inactive)
- GI50 [19]: > 100 µM (inactive)
- GI50 [20]: 98.6 µM (inactive)
- GI50 [21]: > 100 µM (inactive)
- GI50 [22]: > 100 µM (inactive)
- GI50 [23]: > 100 µM (inactive)
- GI50 [24]: 95.1 µM (inactive)
- GI50 [25]: > 100 µM (inactive)
- GI50 [26]: > 100 µM (inactive)
- GI50 [27]: > 100 µM (inactive)
- GI50 [28]: 58.6 µM (inactive)
- GI50 [29]: 43.1 µM (inactive)
- GI50 [30]: > 100 µM (inactive)
- GI50 [31]: > 100 µM (inactive)
- GI50 [32]: 24.7 µM (inactive)
- GI50 [33]: 30.2 µM (inactive)
- GI50 [34]: 14.6 µM (inactive)
- GI50 [35]: 29.7 µM (inactive)
- GI50 [36]: > 100 µM (inactive)
- GI50 [37]: 49.9 µM (inactive)
- GI50 [38]: > 100 µM (inactive)
- GI50 [39]: 23.3 µM (inactive)
- GI50 [40]: > 100 µM (inactive)
- GI50 [41]: 29.2 µM (inactive)
- GI50 [42]: 20.4 µM (inactive)
- GI50 [43]: > 100 µM (inactive)
- GI50 [44]: > 100 µM (inactive)
- GI50 [45]: 76 µM (inactive)
- GI50 [46]: 48.6 µM (inactive)
- GI50 [47]: > 10 µM (inactive)
- GI50 [48]: > 100 µM (inactive)
- GI50 [49]: > 100 µM (inactive)
- GI50 [50]: 20.3 µM (inactive)

SMILES: COC(=O)C1ON2C(C1C(=O)OC)C(C)(C)N(O)C2(C)C (centres undefined)
- GI50 [2]: > 10 µM (inactive)
- GI50 [3]: > 10 µM (inactive)
- GI50 [4]: > 10 µM (inactive)
- GI50 [6]: > 10 µM (inactive)
- GI50 [7]: > 10 µM (inactive)
- GI50 [8]: > 10 µM (inactive)
- GI50 [10]: > 10 µM (inactive)
- GI50 [11]: > 10 µM
- GI50 [51]: > 10 µM (inactive)
- GI50 [14]: > 10 µM (inactive)
- GI50 [16]: > 10 µM (inactive)
- GI50 [18]: > 10 µM (inactive)
- GI50 [19]: > 10 µM (inactive)
- GI50 [21]: > 10 µM (inactive)
- GI50 [22]: > 10 µM (inactive)
- GI50 [52]: > 10 µM (inactive)
- GI50 [24]: > 10 µM (inactive)
- GI50 [53]: > 10 µM (inactive)
- GI50 [26]: > 10 µM (inactive)
- GI50 [54]: > 10 µM (inactive)
- GI50 [27]: > 10 µM (inactive)
- GI50 [28]: > 10 µM (inactive)
- GI50 [29]: > 10 µM (inactive)
- GI50 [30]: > 10 µM (inactive)
- GI50 [32]: > 10 µM (inactive)
- GI50 [33]: > 10 µM (inactive)
- GI50 [34]: > 10 µM (inactive)
- GI50 [35]: > 10 µM (inactive)
- GI50 [36]: > 10 µM (inactive)
- GI50 [38]: > 10 µM (inactive)
- GI50 [40]: > 10 µM (inactive)
- GI50 [41]: > 10 µM (inactive)
- GI50 [42]: > 10 µM (inactive)
- GI50 [44]: > 10 µM (inactive)
- GI50 [46]: > 10 µM (inactive)
- GI50 [47]: > 10 µM (inactive)

SMILES: CCCCCCCCCc1cc(=O)c2c(O)cc(O)cc2o1
- GI50 [1]: 21.6 µM (inactive)
- GI50 [55]: 18.1 µM (inactive)
- GI50 [2]: 18.5 µM (inactive)
- GI50 [3]: 19 µM (inactive)
- GI50 [4]: > 100 µM (inactive)
- GI50 [5]: 24.3 µM (inactive)
- GI50 [6]: 27.2 µM (inactive)
- GI50 [7]: 20.2 µM (inactive)
- GI50 [8]: 18.7 µM (inactive)
- GI50 [9]: 21.1 µM (inactive)
- GI50 [10]: 21.7 µM (inactive)
- GI50 [11]: 18.8 µM
- GI50 [12]: 14.3 µM (inactive)
- GI50 [13]: 14.8 µM (inactive)
- GI50 [51]: 16.3 µM (inactive)
- GI50 [14]: 19.1 µM (inactive)
- GI50 [15]: 16.7 µM (inactive)
- GI50 [16]: 16.5 µM (inactive)
- GI50 [17]: 10.2 µM (inactive)
- GI50 [18]: 6.67 µM (inactive)
- GI50 [56]: 21.8 µM (inactive)
- GI50 [19]: 18.1 µM (inactive)
- GI50 [21]: > 100 µM (inactive)
- GI50 [22]: 18.7 µM (inactive)
- GI50 [52]: > 100 µM (inactive)
- GI50 [23]: 4.91 µM (inactive)
- GI50 [57]: 16.4 µM (inactive)
- GI50 [24]: 17.8 µM (inactive)
- GI50 [53]: 18.5 µM (inactive)
- GI50 [25]: 22.6 µM (inactive)
- GI50 [58]: 15.1 µM (inactive)
- GI50 [26]: 17.6 µM (inactive)
- GI50 [54]: 15.7 µM (inactive)
- GI50 [27]: 24.3 µM (inactive)
- GI50 [28]: 16.6 µM (inactive)
- GI50 [29]: 20.2 µM (inactive)
- GI50 [30]: 18 µM (inactive)
- GI50 [31]: 5.86 µM (inactive)
- GI50 [32]: 15.1 µM (inactive)
- GI50 [33]: 3.82 µM (inactive)
- GI50 [34]: 18.7 µM (inactive)
- GI50 [35]: 17.3 µM (inactive)
- GI50 [36]: 19.2 µM (inactive)
- GI50 [37]: 18.9 µM (inactive)
- GI50 [38]: 19.8 µM (inactive)
- GI50 [39]: 17.1 µM (inactive)
- GI50 [40]: 22.2 µM (inactive)
- GI50 [41]: 18.9 µM (inactive)
- GI50 [42]: 18.1 µM (inactive)
- GI50 [43]: 15.2 µM (inactive)
- GI50 [44]: 27.9 µM (inactive)
- GI50 [45]: 22.2 µM (inactive)
- GI50 [46]: 18.8 µM (inactive)
- GI50 [47]: 28.6 µM (inactive)
- GI50 [48]: 19.7 µM (inactive)
- GI50 [50]: 16.9 µM (inactive)

SMILES: Clc1cc(-c2csc(Cl)c2)cs1
- GI50 [1]: > 100 µM (inactive)
- GI50 [55]: > 100 µM (inactive)
- GI50 [2]: > 100 µM (inactive)
- GI50 [3]: > 100 µM (inactive)
- GI50 [4]: > 100 µM (inactive)
- GI50 [5]: > 100 µM (inactive)
- GI50 [6]: > 100 µM (inactive)
- GI50 [7]: > 100 µM (inactive)
- GI50 [8]: > 100 µM (inactive)
- GI50 [10]: > 100 µM (inactive)
- GI50 [11]: > 100 µM
- GI50 [12]: > 100 µM (inactive)
- GI50 [51]: > 100 µM (inactive)
- GI50 [14]: > 100 µM (inactive)
- GI50 [15]: > 100 µM (inactive)
- GI50 [16]: > 100 µM (inactive)
- GI50 [18]: > 100 µM (inactive)
- GI50 [56]: > 100 µM (inactive)
- GI50 [19]: > 100 µM (inactive)
- GI50 [20]: > 100 µM (inactive)
- GI50 [21]: > 100 µM (inactive)
- GI50 [22]: > 100 µM (inactive)
- GI50 [52]: > 100 µM (inactive)
- GI50 [23]: > 100 µM (inactive)
- GI50 [24]: > 100 µM (inactive)
- GI50 [53]: > 100 µM (inactive)
- GI50 [25]: > 100 µM (inactive)
- GI50 [58]: > 100 µM (inactive)
- GI50 [26]: > 100 µM (inactive)
- GI50 [54]: > 100 µM (inactive)
- GI50 [27]: > 100 µM (inactive)
- GI50 [28]: > 100 µM (inactive)
- GI50 [29]: > 100 µM (inactive)
- GI50 [30]: > 100 µM (inactive)
- GI50 [31]: > 100 µM (inactive)
- GI50 [32]: > 100 µM (inactive)
- GI50 [33]: > 100 µM (inactive)
- GI50 [34]: > 100 µM (inactive)
- GI50 [35]: > 100 µM (inactive)
- GI50 [36]: > 100 µM (inactive)
- GI50 [37]: > 100 µM (inactive)
- GI50 [38]: > 100 µM (inactive)
- GI50 [40]: > 100 µM (inactive)
- GI50 [41]: > 100 µM (inactive)
- GI50 [42]: > 100 µM (inactive)
- GI50 [43]: > 100 µM (inactive)
- GI50 [44]: > 100 µM (inactive)
- GI50 [46]: > 100 µM (inactive)
- GI50 [47]: > 100 µM (inactive)
- GI50 [48]: > 100 µM (inactive)
- GI50 [49]: > 100 µM (inactive)
- GI50 [50]: > 100 µM (inactive)
